ChEMBL document CHEMBL1201862, “PubChem BioAssay data set” (2004)
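96-well plates; 48 h exposure; 5 concentrations. Endpoints by linear interpolation between flanking doses. Not reached: highest tested concentration assigned. At the GI50, growth is halved.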 The source made the active and inactive calls. Rule as the data show it: active = GI50 up to about 1.1 µM and inactive = higher.

What was measured:
Assay in all cases: NCI-60 cell line screen, 48 h
MDA-MB-435 = test system: MDA-MB-435
HT-29 = test system: HT-29
SK-OV-3 = test system: SK-OV-3
SNB-19 = test system: SNB-19
MDA-N = test system: MDA-N
OVCAR-3 = test system: OVCAR-3
ACHN = test system: ACHN
TK-10 = test system: TK-10
HL-60 = test system: HL-60
A549 = test system: A549
CAKI-1 = test system: CAKI-1
HOP-62 = test system: HOP-62
SF-539 = test system: SF-539
RXF 393 = test system: RXF 393
MCF7 = test system: MCF7
HCT-116 = test system: HCT-116
SN12C = test system: SN12C
SK-MEL-28 = test system: SK-MEL-28
K562 = test system: K562
SNB-78 = test system: SNB-78

Row | Structure (SMILES) | GI50 (MDA-MB-435) | GI50 (HT-29) | GI50 (SK-OV-3) | GI50 (SNB-19) | GI50 (MDA-N) | GI50 (OVCAR-3) | GI50 (ACHN) | GI50 (TK-10) | GI50 (HL-60) | GI50 (A549) | GI50 (CAKI-1) | GI50 (HOP-62) | GI50 (SF-539) | GI50 (RXF 393) | GI50 (MCF7) | GI50 (HCT-116) | GI50 (SN12C) | GI50 (SK-MEL-28) | GI50 (K562) | GI50 (SNB-78)
1 | CC12CCC(C(=O)n3c1nc1ccccc13)C(C)(C)O2 (stereo not drawn) | > 100 µM (inactive) | > 100 µM (inactive) | > 100 µM (inactive) | > 100 µM (inactive) | > 100 µM (inactive) | > 100 µM (inactive) | > 100 µM (inactive) | > 100 µM (inactive) | > 100 µM (inactive) | > 100 µM (inactive) | > 100 µM (inactive) | > 100 µM (inactive) | > 100 µM (inactive) | > 100 µM (inactive) | > 100 µM (inactive) | > 100 µM (inactive) | > 100 µM (inactive) | > 100 µM (inactive) | > 100 µM (inactive) | 
2 | NC1=NC2(COC(c3ccccc3)(c3ccccc3)c3ccccc3)OC(COC(c3ccccc3)(c3ccccc3)c3ccccc3)C(O)C2O1 (stereo not drawn) | 65.8 µM (inactive) | 65 µM (inactive) | > 100 µM (inactive) | 23 µM (inactive) | 85.1 µM (inactive) | > 100 µM (inactive) | 88.3 µM (inactive) | 18.9 µM (inactive) | 8.59 µM (inactive) | 25.1 µM (inactive) | > 100 µM (inactive) | > 100 µM (inactive) | 71.6 µM (inactive) | 66.5 µM (inactive) | > 100 µM (inactive) | 38.3 µM (inactive) | > 100 µM (inactive) | > 100 µM (inactive) | 21.8 µM (inactive) | 
3 | CC1CNC(c2ccc(CN3CCC(C4CCN(Cc5ccc(C6=NC(C)CN6)cc5)CC4)CC3)cc2)=N1 (stereo not drawn) | 20.8 µM (inactive) | 18.5 µM (inactive) | 16.3 µM (inactive) | 26.1 µM (inactive) | 21.3 µM (inactive) | 17.5 µM (inactive) | 26.5 µM (inactive) | 22.4 µM (inactive) | 36.1 µM (inactive) | 20.6 µM (inactive) | 38.8 µM (inactive) | 14.9 µM (inactive) | 20.3 µM (inactive) | 16.9 µM (inactive) | 17 µM (inactive) | 17.9 µM (inactive) | 20.1 µM (inactive) | 32.6 µM (inactive) | 16.7 µM (inactive) | 
4 | CC(C)OC(=O)C(NC(=O)C(CC(=O)OCc1ccccc1)NC(=O)OCc1ccccc1)NC(=O)C1C(C)(C)CCC1(C)C (stereo not drawn) | 23.8 µM (inactive) | 3.58 µM (inactive) | 4.18 µM (inactive) | 4.29 µM (inactive) | 10.1 µM (inactive) | 2.77 µM (inactive) | 3.56 µM (inactive) | 18.8 µM (inactive) | 3.76 µM (inactive) | 2.22 µM (inactive) | 9.98 µM (inactive) | 6.56 µM (inactive) | 2.81 µM (inactive) | 4.43 µM (inactive) | 14.9 µM (inactive) | 3.61 µM (inactive) | 3.84 µM (inactive) | > 42 µM (inactive) | 4.31 µM (inactive) | 
5 | CC1=C(c2nc3ccccc3s2)C(=O)OC1(C)C |  | > 100 µM (inactive) | > 100 µM (inactive) | > 100 µM (inactive) |  | > 100 µM (inactive) | > 100 µM (inactive) |  |  | > 100 µM (inactive) | > 100 µM (inactive) | > 100 µM (inactive) | > 100 µM (inactive) |  |  | > 100 µM (inactive) | > 100 µM (inactive) | > 100 µM (inactive) | > 100 µM (inactive) | > 100 µM (inactive)
6 | CC1(C)C(=O)C(=Cc2ccco2)C1=O |  | > 100 µM (inactive) | > 100 µM (inactive) |  |  |  | > 100 µM (inactive) | > 100 µM (inactive) | > 100 µM (inactive) | > 100 µM (inactive) | > 100 µM (inactive) |  | > 100 µM (inactive) |  |  | > 100 µM (inactive) | > 100 µM (inactive) | > 100 µM (inactive) | > 100 µM (inactive) | > 100 µM (inactive)
7 | NC1=NN(c2ccccc2)C(=O)C1/C(=N\NC(=O)c1cc2ccccc2cc1O)C(=O)Nc1ccc(Cl)cc1 (stereo not drawn) |  | 42.5 µM (inactive) | 51.5 µM (inactive) | 37.8 µM (inactive) |  | 10.9 µM (inactive) | 26 µM (inactive) | 37.1 µM (inactive) | 3.57 µM (inactive) | 44.5 µM (inactive) | 31 µM (inactive) | 36.6 µM (inactive) | 23.9 µM (inactive) |  |  | 11.9 µM (inactive) | 36.8 µM (inactive) | 25.1 µM (inactive) | 10.1 µM (inactive) | 34.8 µM (inactive)
8 | [N-]=[N+]=CC(=O)C1CCN(c2ccccc2)C1=O (stereo not drawn) | > 10 µM (inactive) | > 10 µM (inactive) | > 10 µM (inactive) | > 10 µM (inactive) | > 10 µM (inactive) | > 10 µM (inactive) | > 10 µM (inactive) | > 10 µM (inactive) | > 10 µM (inactive) | > 10 µM (inactive) | > 10 µM (inactive) | > 10 µM (inactive) | > 10 µM (inactive) | > 10 µM (inactive) | > 10 µM (inactive) | > 10 µM (inactive) | > 10 µM (inactive) | > 10 µM (inactive) | > 10 µM (inactive) | 
9 | COC(=O)[C@]1(C)[C@H]2C[C@H]3O[C@H]4[C@H](O)[C@@H](O)OC(CC(O)C(C5=CC(=O)OC5)C(C5=CC(=O)OC5)C(O)CC56CCCCC7[C@@H](C)[C@H](C[C@H]8[C@](C)(C(=O)OC)[C@H](O)CC[C@]78C)O[C@H]([C@@H](O)[C@H](O)O5)[C@H]6O)(CCCCC([C@@H]3C)[C@]2(C)CC[C@@H]1O)[C@H]4O (stereo partly drawn) | 0.247 µM (active) | 0.157 µM (active) | 0.302 µM (active) | 0.372 µM (active) | 0.138 µM (active) | 0.103 µM (active) | < 0.0218 µM (active) | < 0.0391 µM (active) | 0.0513 µM (active) | 0.0286 µM (active) | 0.0488 µM (active) | 0.065 µM (active) | 0.0394 µM (active) | 0.0356 µM (active) | 0.111 µM (active) | 0.0404 µM (active) | < 0.021 µM (active) | 0.262 µM (active) | 0.234 µM (active) | 
10 | CC(OCc1ccccc1)C(NC(=O)C1CSSCC(NC(=O)C(Cc2ccccc2)NC(=O)OCc2ccccc2)C(=O)NC(Cc2ccccc2)C(=O)NC(Cc2cn(C=O)c3ccccc23)C(=O)NC(CCCCNC(=O)OCc2ccccc2)C(=O)NC(C(C)OCc2ccccc2)C(=O)N1)C(N)=O (stereo not drawn) | 37.9 µM (inactive) | 6.04 µM (inactive) | > 35.2 µM (inactive) | 36.7 µM (inactive) | 24.2 µM (inactive) | 14 µM (inactive) | > 59.6 µM (inactive) | 33.7 µM (inactive) | 0.977 µM (active) | > 79.3 µM (inactive) | 46 µM (inactive) | 55.1 µM (inactive) | > 100 µM (inactive) | 97.1 µM (inactive) | 8.02 µM (inactive) | 17.7 µM (inactive) | > 100 µM (inactive) | 27.9 µM (inactive) | 16.4 µM (inactive) | 
11 | COc1ccc(N2C(=O)C3CC(c4ccc(Br)cc4)c4c([nH]c5ccccc45)C3C2=O)cc1 (stereo not drawn) |  | 13.2 µM (inactive) |  | 3.43 µM (inactive) |  |  | 4.51 µM (inactive) | 7.1 µM (inactive) | 12.8 µM (inactive) | 2.71 µM (inactive) | 15.1 µM (inactive) | 3.91 µM (inactive) | 3.52 µM (inactive) |  |  | 6.4 µM (inactive) | 3.93 µM (inactive) | 11.5 µM (inactive) | 5.37 µM (inactive) | 14.8 µM (inactive)
12 | COc1cc(/C=C/C(=O)O)ccc1OS(=O)(=O)O | > 100 µM (inactive) | > 100 µM (inactive) | > 100 µM (inactive) | > 100 µM (inactive) | > 100 µM (inactive) | > 100 µM (inactive) | > 100 µM (inactive) | > 100 µM (inactive) | > 100 µM (inactive) | > 100 µM (inactive) | > 100 µM (inactive) | > 100 µM (inactive) | > 100 µM (inactive) | > 100 µM (inactive) | > 100 µM (inactive) | > 100 µM (inactive) | > 100 µM (inactive) | > 100 µM (inactive) | > 100 µM (inactive) | 
13 | CC1CC[C@]2(C(=O)O)CCC3(C)C(=CCC4[C@@]5(C)CC[C@H](OS(=O)(=O)c6ccccc6)C(C)(C)C5CC[C@]43C)[C@@H]2[C@H]1C (stereo partly drawn) |  | > 100 µM (inactive) | > 100 µM (inactive) | > 100 µM (inactive) |  | > 100 µM (inactive) | 52.2 µM (inactive) | > 100 µM (inactive) |  | 36.6 µM (inactive) | > 100 µM (inactive) | > 100 µM (inactive) | > 100 µM (inactive) |  |  | 27.2 µM (inactive) | > 100 µM (inactive) | > 100 µM (inactive) | 51.4 µM (inactive) | > 100 µM (inactive)
14 | COc1ccc(/C=C\c2cc(OC)c(OC)c(OC)c2)cc1 |  | < 0.01 µM (active) | 0.000726 µM (active) | 0.0013 µM (active) |  | < 0.0001 µM (active) | 0.000653 µM (active) |  | 0.000244 µM (active) | 0.00051 µM (active) | < 0.01 µM (active) | 0.1 µM (active) | 0.000389 µM (active) |  |  | 0.000279 µM (active) | 0.000843 µM (active) | < 0.01 µM (active) | 0.000102 µM (active) | 0.000116 µM (active)
15 | COc1cc2oc(-c3ccc(O)cc3)cc(=O)c2c(OC)c1O | > 100 µM (inactive) | > 100 µM (inactive) | 30.5 µM (inactive) | 45.4 µM (inactive) | > 100 µM (inactive) | 80.9 µM (inactive) | 32.7 µM (inactive) | 51.4 µM (inactive) | 21.2 µM (inactive) | 89.9 µM (inactive) | > 100 µM (inactive) | 29.2 µM (inactive) | > 100 µM (inactive) | 29 µM (inactive) | > 100 µM (inactive) | 54 µM (inactive) | 68.7 µM (inactive) | > 100 µM (inactive) | 60.5 µM (inactive) | 
